Consider 21 molecules from ChEMBL document CHEMBL1136145, “Antitumor activity of unsaturated fatty acid esters of 4'-demethyldeoxypodophyllotoxin” (Bioorg Med Chem Lett, 2003).

In brackets after ≈: the same amount, converted by molar mass. Bounds are passed on as bounds.

For orientation: IC50 means the point on the concentration scale where inhibition reaches its midpoint. A lower IC50 goes with higher potency.

One assay deals with SK-MEL-2. Kind of assay: Cytotoxicity in SK-MEL-2 (human melanoma) cell line. The settings on record: read-out: ED50 (the source's name). Format: functional.
For the next assay, the system named is A549. Kind of assay: Cytotoxicity in A549 (human carcinoma) cell line. The settings on record: read-out: ED50 (the source's name). Format: functional.
Another assay concerns the target Tubulin. Description: Inhibition of tubulin polymerization in S180 (murine sarcoma) cells. The settings on record: ccrf s-180. The assay is classed as functional, cell-based.
For the next assay, the system named is CCRF S-180. Description: Cytotoxicity in S-180 (murine sarcoma) cell was determined. The conditions noted are these: Mus musculus. Format: functional, cell-based.
Assay [1] is described as follows: Inhibition of DNA topoisomerase II in S180 (murine sarcoma) cells. The settings on record: ccrf s-180. Format: functional, cell-based, Mus musculus.

For `CCCCCCCCCCCCCCCC(=O)Oc1c(OC)cc([C@@H]2c3cc4c(cc3C[C@H]3COC(=O)[C@@H]32)OCO4)cc1OC`, the EC50 in the assay with SK-MEL-2 amounted to 0.29 µg/mL (≈ 0.466 µM); in the assay on A549 it was 0.268 µg/mL (≈ 0.43 µM).

Take `CCCCCC/C=C/CCCCCCCCCC(=O)Oc1c(OC)cc([C@@H]2c3cc4c(cc3C[C@H]3COC(=O)[C@@H]32)OCO4)cc1OC`: the EC50 came to 0.253 µg/mL (≈ 0.39 µM) in the assay with SK-MEL-2 and 1.01 µg/mL (≈ 1.56 µM) in the assay with A549.

For the molecule `CCCCCCCC/C=C/CCCCCCCC(=O)Oc1c(OC)cc([C@@H]2c3cc4c(cc3C[C@H]3COC(=O)[C@@H]32)OCO4)cc1OC`, the EC50 in the assay on SK-MEL-2 was 0.55 µg/mL (≈ 0.848 µM); in the assay on A549 it was 0.367 µg/mL (≈ 0.566 µM).

As to `COc1cc([C@@H]2c3cc4c(cc3C[C@H]3COC(=O)[C@@H]32)OCO4)cc(OC)c1O` [4'-DEMETHYLDEOXYPODOPHYLLOTOXIN], the values for the IC50 (on Tubulin; in the assay with CCRF S-180; in assay [1]) were 2000 nM, 30 nM and 24500 nM, respectively. The results for the EC50 in the assay with SK-MEL-2 and in the assay on A549 were 0.015 µg/mL (≈ 0.039 µM) and 0.023 µg/mL (≈ 0.0598 µM), respectively.

On to `CCCCC/C=C/C/C=C/CCCCCCCC(=O)Oc1c(OC)cc([C@@H]2c3cc4c(cc3C[C@H]3COC(=O)[C@@H]32)OCO4)cc1OC`, for which the figures for the EC50 in the assay on SK-MEL-2 and in the assay with A549 were 0.11 µg/mL (≈ 0.17 µM) and 0.259 µg/mL (≈ 0.4 µM), respectively.

In the case of `CCCC/C=C\C/C=C\CCCCCCCCCC(=O)Oc1c(OC)cc([C@@H]2c3cc4c(cc3C[C@H]3COC(=O)[C@@H]32)OCO4)cc1OC`, the EC50 came out at 0.347 µg/mL (≈ 0.525 µM) with SK-MEL-2 and 0.87 µg/mL (≈ 1.32 µM) in the assay on A549.

For `CCCCC/C=C\C/C=C\C/C=C\CCCCC(=O)Oc1c(OC)cc([C@@H]2c3cc4c(cc3C[C@H]3COC(=O)[C@@H]32)OCO4)cc1OC`, the EC50 in the assay with SK-MEL-2 was found to be 0.041 µg/mL (≈ 0.0636 µM); in the assay with A549, 0.085 µg/mL (≈ 0.132 µM).

Turning to `CC/C=C\C/C=C\C/C=C\C/C=C\C/C=C\C/C=C\CCC(=O)Oc1c(OC)cc([C@@H]2c3cc4c(cc3C[C@H]3COC(=O)[C@@H]32)OCO4)cc1OC`, the values for the EC50 with SK-MEL-2 and in the assay with A549 were 0.035 µg/mL (≈ 0.0504 µM) and 0.119 µg/mL (≈ 0.171 µM), respectively.

In the case of `CCCCCCCCCCCCCCCCCCCC(=O)Oc1c(OC)cc([C@@H]2c3cc4c(cc3C[C@H]3COC(=O)[C@@H]32)OCO4)cc1OC`, the EC50 in the assay on SK-MEL-2 and with A549 was more than 5 µg/mL in each case.

With `CCCCCCCC/C=C\CCCCCCCC(=O)Oc1c(OC)cc([C@@H]2c3cc4c(cc3C[C@H]3COC(=O)[C@@H]32)OCO4)cc1OC`, the EC50 with SK-MEL-2 came out at 0.159 µg/mL (≈ 0.245 µM); in the assay with A549, 0.179 µg/mL (≈ 0.276 µM).

In the case of `CCCCCC/C=C\CCCCCCCC(=O)Oc1c(OC)cc([C@@H]2c3cc4c(cc3C[C@H]3COC(=O)[C@@H]32)OCO4)cc1OC`, the EC50 was 0.065 µg/mL (≈ 0.105 µM) with SK-MEL-2 and 0.733 µg/mL (≈ 1.18 µM) in the assay on A549.

On to `CCCCCCCCCCCCCCCCCCCCCC(=O)Oc1c(OC)cc([C@@H]2c3cc4c(cc3C[C@H]3COC(=O)[C@@H]32)OCO4)cc1OC`, for which the EC50 with SK-MEL-2 and in the assay with A549 was more than 5 µg/mL each time.

In the case of `CCCCC/C=C\C/C=C\CCCCCCCC(=O)Oc1c(OC)cc([C@@H]2c3cc4c(cc3C[C@H]3COC(=O)[C@@H]32)OCO4)cc1OC`, the EC50 came out at 0.03 µg/mL (≈ 0.0464 µM) in the assay with SK-MEL-2 and 0.09 µg/mL (≈ 0.139 µM) in the assay on A549.

On to `CC/C=C\C/C=C\C/C=C\CCCCCCCC(=O)Oc1c(OC)cc([C@@H]2c3cc4c(cc3C[C@H]3COC(=O)[C@@H]32)OCO4)cc1OC`, for which the EC50 in the assay on SK-MEL-2 is 0.048 µg/mL (≈ 0.0744 µM); in the assay with A549 it was 0.084 µg/mL (≈ 0.13 µM).

For `CCCC/C=C\C/C=C\C/C=C\C/C=C\CCCC(=O)Oc1c(OC)cc([C@@H]2c3cc4c(cc3C[C@H]3COC(=O)[C@@H]32)OCO4)cc1OC`, the EC50 came out at 0.184 µg/mL (≈ 0.28 µM) in the assay on SK-MEL-2 and 0.91 µg/mL (≈ 1.39 µM) with A549.

With `CCCCCCC/C=C/CCCCCCCCCC(=O)Oc1c(OC)cc([C@@H]2c3cc4c(cc3C[C@H]3COC(=O)[C@@H]32)OCO4)cc1OC`, the EC50 in the assay on SK-MEL-2 was determined as 1.13 µg/mL (≈ 1.7 µM); in the assay on A549 it was 1.66 µg/mL (≈ 2.5 µM).

Take `CCCCCC/C=C\CCCCCCCCCC(=O)Oc1c(OC)cc([C@@H]2c3cc4c(cc3C[C@H]3COC(=O)[C@@H]32)OCO4)cc1OC`: the results for the EC50 with SK-MEL-2 and with A549 were 0.057 µg/mL (≈ 0.0878 µM) and 0.335 µg/mL (≈ 0.516 µM), respectively.

As to `CCCCCCCC/C=C\CCCCCCCCCC(=O)Oc1c(OC)cc([C@@H]2c3cc4c(cc3C[C@H]3COC(=O)[C@@H]32)OCO4)cc1OC`, the EC50 in the assay with SK-MEL-2 and with A549 was more than 5 µg/mL throughout.

Consider `COc1cc([C@@H]2c3cc4c(cc3C[C@H]3COC(=O)[C@@H]32)OCO4)cc(OC)c1OC` [DESOXYPODOPHYLLOTOXIN], for which the EC50 amounted to 0.009 µg/mL (≈ 0.0226 µM) in the assay with SK-MEL-2 and 0.012 µg/mL (≈ 0.0301 µM) with A549.

As to `CCCCCCCCCCCCCCCCCC(=O)Oc1c(OC)cc([C@@H]2c3cc4c(cc3C[C@H]3COC(=O)[C@@H]32)OCO4)cc1OC`, the figures for the EC50 in the assay with SK-MEL-2 and in the assay with A549 were more than 5 µg/mL and 2.67 µg/mL (≈ 4.1 µM), respectively.

For `CCCCCCCC/C=C\CCCCCCCCCCCC(=O)Oc1c(OC)cc([C@@H]2c3cc4c(cc3C[C@H]3COC(=O)[C@@H]32)OCO4)cc1OC`, the EC50 in the assay on SK-MEL-2 was 0.561 µg/mL (≈ 0.796 µM); with A549, 2.71 µg/mL (≈ 3.84 µM).
